Patent US12581252B2, “Substituted pyrrolo[3,4-b]pyridines as PI3K-α inhibitors” (Relay Therapeutics, Inc., priority 2020, dated 2026)

Target: H1047R PIK3CA enzyme (Homo sapiens, UniProt P42336, H1047R)
Test: ADP-Glo Biochemical PIK3CA Kinase Assay
Description: Compounds to be assayed were plated in 16 doses of 1:2 serial dilutions (20 nL volume each well) on a 1536-well plate, and the plate warmed to room temperature. […] To the well was added 1 μL of 200 μM ATP and 20 μM of diC8-PIP2 in Substrate Assay Buffer (50 mM HEPES pH7.4, 50 mM NaCl, 5 mM DTT and 0.03% CHAPS) to start the reaction, and the plate was shaken for 10 seconds, then spun briefly at 1500 rpm, and then incubated for 60 minutes at room temperature. The reaction was stopped by adding 2 μL of ADP-Glo reagent (Promega), and spinning briefly at 1500 rpm, and then incubating for 40 minutes. ADP-Glo Detection reagent (Promega) was added and the plate spun briefly at 1500 rpm, then incubated for 30 minutes.

Chain of H1047R PIK3CA enzyme (P42336 whole entry H1047R): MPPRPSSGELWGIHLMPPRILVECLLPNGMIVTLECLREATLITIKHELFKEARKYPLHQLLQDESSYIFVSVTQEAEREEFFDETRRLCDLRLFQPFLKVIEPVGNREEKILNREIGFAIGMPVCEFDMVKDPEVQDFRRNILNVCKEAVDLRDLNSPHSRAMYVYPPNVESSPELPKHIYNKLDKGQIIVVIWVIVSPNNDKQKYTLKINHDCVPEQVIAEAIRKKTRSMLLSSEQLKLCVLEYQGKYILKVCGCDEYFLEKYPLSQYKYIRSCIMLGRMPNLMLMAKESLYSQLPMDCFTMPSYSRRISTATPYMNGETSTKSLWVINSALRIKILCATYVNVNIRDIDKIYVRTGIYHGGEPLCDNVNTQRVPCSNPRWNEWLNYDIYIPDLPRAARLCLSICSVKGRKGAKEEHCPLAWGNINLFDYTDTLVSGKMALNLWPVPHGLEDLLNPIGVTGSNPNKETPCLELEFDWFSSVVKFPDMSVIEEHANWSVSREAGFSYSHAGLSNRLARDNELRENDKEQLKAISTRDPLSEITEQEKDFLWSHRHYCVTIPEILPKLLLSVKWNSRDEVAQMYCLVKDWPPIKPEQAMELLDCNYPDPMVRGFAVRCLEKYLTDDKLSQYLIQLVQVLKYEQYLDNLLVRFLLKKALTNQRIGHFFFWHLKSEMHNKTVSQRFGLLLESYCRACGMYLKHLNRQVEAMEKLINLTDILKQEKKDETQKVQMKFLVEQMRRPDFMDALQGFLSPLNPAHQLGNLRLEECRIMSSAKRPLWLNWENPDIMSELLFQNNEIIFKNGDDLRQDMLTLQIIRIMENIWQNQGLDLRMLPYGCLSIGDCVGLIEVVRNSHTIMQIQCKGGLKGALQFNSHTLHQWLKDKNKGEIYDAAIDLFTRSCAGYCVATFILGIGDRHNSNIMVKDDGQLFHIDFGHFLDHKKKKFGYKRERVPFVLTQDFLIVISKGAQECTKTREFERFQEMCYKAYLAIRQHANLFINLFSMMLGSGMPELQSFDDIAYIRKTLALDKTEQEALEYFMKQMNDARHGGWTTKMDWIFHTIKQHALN
Chain of H1047R PIK3CA enzyme (P27986 whole entry partner): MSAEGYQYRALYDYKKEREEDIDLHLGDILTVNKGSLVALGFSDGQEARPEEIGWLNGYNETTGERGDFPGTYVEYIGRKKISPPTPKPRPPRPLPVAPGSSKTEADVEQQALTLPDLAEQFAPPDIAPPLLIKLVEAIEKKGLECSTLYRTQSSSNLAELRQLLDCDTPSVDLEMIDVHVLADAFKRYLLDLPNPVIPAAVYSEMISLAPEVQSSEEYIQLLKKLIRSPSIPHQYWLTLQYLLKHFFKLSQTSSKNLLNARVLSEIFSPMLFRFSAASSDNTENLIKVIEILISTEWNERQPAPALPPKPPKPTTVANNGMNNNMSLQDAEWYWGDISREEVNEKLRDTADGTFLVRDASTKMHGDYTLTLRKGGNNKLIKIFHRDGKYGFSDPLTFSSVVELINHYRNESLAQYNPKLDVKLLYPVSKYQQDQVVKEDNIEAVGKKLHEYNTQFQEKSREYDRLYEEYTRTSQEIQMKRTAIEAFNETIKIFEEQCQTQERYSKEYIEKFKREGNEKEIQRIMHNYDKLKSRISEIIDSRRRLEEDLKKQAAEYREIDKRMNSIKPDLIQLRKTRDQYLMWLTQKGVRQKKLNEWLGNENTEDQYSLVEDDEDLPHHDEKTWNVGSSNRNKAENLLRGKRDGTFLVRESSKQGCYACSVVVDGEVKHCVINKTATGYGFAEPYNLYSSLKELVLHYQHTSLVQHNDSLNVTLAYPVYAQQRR

Structure (SMILES) | IC50
COC1CC(Nc2cc(NC(=O)c3cc(F)cc(C(F)(F)F)c3)c3c(c2)C(=O)NC3c2cc(F)ccc2Cl)C1 (single isomer, unassigned) [Compound I-781] | ≤ 100 nM
O=C1NC(c2cc(F)ccc2Cl)c2c(NC(=O)[C@@H](O)c3cc(F)cc(F)c3)cc(Br)cc21 (single isomer, unassigned) [Compound I-803] | 10000 to 100000 nM
O=C1NC(c2cc(F)ccc2Cl)c2c(NC(=O)[C@H](O)c3cc(F)cc(F)c3)cc(Br)cc21 (single isomer, unassigned) [Compound I-804] | 10000 to 100000 nM
O=C(Nc1cc(-c2ccc3ncnn3c2)cc2c1[C@@H](c1cc(F)ccc1Cl)NC2=O)c1cc(F)cc(C(F)(F)F)c1 (single isomer, unassigned) [Compound I-943] | 500 to 1000 nM
Cn1cc(Nc2cc(NC(=O)c3cc(F)cc(C(F)(F)F)c3)c3c(c2)C(=O)N[C@@H]3c2cc(F)ccc2Cl)cn1 (single isomer, unassigned) [Compound I-998] | 500 to 1000 nM
O=C(Nc1cc(-c2cnn(C3CC3)c2)cc2c1[C@@H](c1cc(F)ccc1Cl)NC2=O)c1cc(F)cc(C(F)(F)F)c1 (single isomer, unassigned) [Compound I-1021] | 10000 to 100000 nM
N#C[C@H]1C[C@H](c2cc(NC(=O)c3cc(F)cc(C(F)(F)F)c3)c3c(c2)C(=O)N[C@@H]3c2cc(F)ccc2Cl)C1 (single isomer, unassigned) [Compound I-1325] | 100 to 500 nM
N#C[C@H]1C[C@H](c2cc(NC(=O)c3cc(F)cc(C(F)(F)F)c3)c3c(c2)C(=O)N[C@H]3c2cc(F)ccc2Cl)C1 (single isomer, unassigned) [Compound I-1326] | ≤ 100 nM
N#C[C@H]1C[C@@H](c2cc(NC(=O)c3cc(F)cc(C(F)(F)F)c3)c3c(c2)C(=O)N[C@@H]3c2cc(F)ccc2Cl)C1 (single isomer, unassigned) [Compound I-1327] | ≤ 100 nM
N#C[C@H]1C[C@@H](c2cc(NC(=O)c3cc(F)cc(C(F)(F)F)c3)c3c(c2)C(=O)N[C@H]3c2cc(F)ccc2Cl)C1 (single isomer, unassigned) [Compound I-1328] | 100 to 500 nM
CS(=O)(=O)N1CCC[C@H]1COc1cc(NC(=O)c2cc(F)cc(C(F)(F)F)c2)c2c(c1)C(=O)NC2c1cc(F)ccc1Cl (single isomer, unassigned) [Compound I-1375] | ≤ 100 nM
CS(=O)(=O)N1CCC[C@@H]1COc1cc(NC(=O)c2cc(F)cc(C(F)(F)F)c2)c2c(c1)C(=O)NC2c1cc(F)ccc1Cl (single isomer, unassigned) [Compound I-1378] | ≤ 100 nM
N#CC[C@@H](O)c1cc(NC(=O)c2cc(F)cc(C(F)(F)F)c2)c2c(c1)C(=O)N[C@@H]2c1cc(F)ccc1Cl (single isomer, unassigned) [Compound I-1391] | 1000 to 10000 nM
N#CC[C@H](O)c1cc(NC(=O)c2cc(F)cc(C(F)(F)F)c2)c2c(c1)C(=O)N[C@@H]2c1cc(F)ccc1Cl (single isomer, unassigned) [Compound I-1392] | 1000 to 10000 nM
N#CC[C@@H](O)c1cc(NC(=O)c2cc(F)cc(C(F)(F)F)c2)c2c(c1)C(=O)N[C@H]2c1cc(F)ccc1Cl (single isomer, unassigned) [Compound I-1393] | ≤ 100 nM
N#CC[C@H](O)c1cc(NC(=O)c2cc(F)cc(C(F)(F)F)c2)c2c(c1)C(=O)N[C@H]2c1cc(F)ccc1Cl (single isomer, unassigned) [Compound I-1394] | ≤ 100 nM
C[C@@](O)(CC#N)c1cc(NC(=O)c2cc(F)cc(C(F)(F)F)c2)c2c(c1)C(=O)N[C@H]2c1cc(F)ccc1Cl (single isomer, unassigned) [Compound I-1395] | ≤ 100 nM
C[C@](O)(CC#N)c1cc(NC(=O)c2cc(F)cc(C(F)(F)F)c2)c2c(c1)C(=O)N[C@@H]2c1cc(F)ccc1Cl (single isomer, unassigned) [Compound I-1396] | 1000 to 10000 nM
O=C(Nc1cc(-c2ccnn2C[C@H]2CCOC2)cc2c1C(c1cc(F)ccc1Cl)NC2=O)c1cc(F)cc(C(F)(F)F)c1 (single isomer, unassigned) [Compound I-1406] | ≤ 100 nM
O=C(Nc1cc(-c2ccnn2C[C@@H]2CCOC2)cc2c1C(c1cc(F)ccc1Cl)NC2=O)c1cc(F)cc(C(F)(F)F)c1 (single isomer, unassigned) [Compound I-1407] | ≤ 100 nM
CC(=O)N1CCC[C@@H](Oc2cc(NC(=O)c3cc(F)cc(C(F)(F)F)c3)c3c(c2)C(=O)NC3c2cc(F)ccc2Cl)C1 (single isomer, unassigned) [Compound I-1431] | ≤ 100 nM
CC(=O)N1CCC[C@H]1COc1cc(NC(=O)c2cc(F)cc(C(F)(F)F)c2)c2c(c1)C(=O)NC2c1cc(F)ccc1Cl (single isomer, unassigned) [Compound I-1466] | ≤ 100 nM
CC(=O)N1CCC[C@@H]1COc1cc(NC(=O)c2cc(F)cc(C(F)(F)F)c2)c2c(c1)C(=O)NC2c1cc(F)ccc1Cl (single isomer, unassigned) [Compound I-1467] | ≤ 100 nM

Structure (SMILES) | IC50
O=C(Nc1cc(OC[C@@H]2CCCN2)cc2c1C(c1cc(F)ccc1Cl)NC2=O)c1cc(F)cc(C(F)(F)F)c1 (single isomer, unassigned) [Compound I-1468] | 100 to 500 nM
C[C@]1(O)CN(C(=O)Nc2cc(Br)cc3c2C(c2cc(F)ccc2Cl)NC3=O)c2ccccc21 (single isomer, unassigned) [Compound I-1508] | 1000 to 10000 nM
C[C@@]1(O)CN(C(=O)Nc2cc(Br)cc3c2C(c2cc(F)ccc2Cl)NC3=O)c2ccccc21 (single isomer, unassigned) [Compound I-1511] | ≤ 100 nM
O=C1N[C@H](c2cc(F)ccc2Cl)c2c(NC(=O)N3C[C@H](O)c4ccccc43)cc(Br)cc21 (single isomer, unassigned) [Compound I-1513] | 100 to 500 nM
O=C(Nc1cc(OC[C@@H]2CCO2)cc2c1[C@H](c1cc(F)ccc1Cl)NC2=O)c1cc(F)cc(C(F)(F)F)c1 (single isomer, unassigned) [Compound I-1517] | ≤ 100 nM
O=C(Nc1cc(OC[C@H]2CCO2)cc2c1[C@H](c1cc(F)ccc1Cl)NC2=O)c1cc(F)cc(C(F)(F)F)c1 (single isomer, unassigned) [Compound I-1518] | ≤ 100 nM
O=C(Nc1cc(OC[C@@H]2CCO2)cc2c1[C@@H](c1cc(F)ccc1Cl)NC2=O)c1cc(F)cc(C(F)(F)F)c1 (single isomer, unassigned) [Compound I-1519] | 10000 to 100000 nM
O=C(Nc1cc(OC[C@H]2CCO2)cc2c1[C@@H](c1cc(F)ccc1Cl)NC2=O)c1cc(F)cc(C(F)(F)F)c1 (single isomer, unassigned) [Compound I-1520] | 10000 to 100000 nM
CN1C[C@H](COc2cc(NC(=O)c3cc(F)cc(C(F)(F)F)c3)c3c(c2)C(=O)N[C@@H]3c2cc(F)ccc2Cl)CC1=O (single isomer, unassigned) [Compound I-1521] | ≤ 100 nM
CN1C[C@H](COc2cc(NC(=O)c3cc(F)cc(C(F)(F)F)c3)c3c(c2)C(=O)N[C@H]3c2cc(F)ccc2Cl)CC1=O (single isomer, unassigned) [Compound I-1522] | ≤ 100 nM
CN1C[C@@H](COc2cc(NC(=O)c3cc(F)cc(C(F)(F)F)c3)c3c(c2)C(=O)N[C@@H]3c2cc(F)ccc2Cl)CC1=O (single isomer, unassigned) [Compound I-1523] | 1000 to 10000 nM
CN1C[C@@H](COc2cc(NC(=O)c3cc(F)cc(C(F)(F)F)c3)c3c(c2)C(=O)N[C@H]3c2cc(F)ccc2Cl)CC1=O (single isomer, unassigned) [Compound I-1524] | 10000 to 100000 nM
CC(=O)N1CCC[C@H](Oc2cc(NC(=O)c3cc(F)cc(C(F)(F)F)c3)c3c(c2)C(=O)NC3c2cc(F)ccc2Cl)C1 (single isomer, unassigned) [Compound I-1525] | 100 to 500 nM
CC(=O)N1CC[C@H](Oc2cc(NC(=O)c3cc(F)cc(C(F)(F)F)c3)c3c(c2)C(=O)NC3c2cc(F)ccc2Cl)C1 (single isomer, unassigned) [Compound I-1541] | 100 to 500 nM
O=C(Nc1cc(-c2cnn(-c3ncccn3)c2)cc2c1C(c1cc(F)ccc1Cl)NC2=O)c1cc(F)cc(C(F)(F)F)c1 (single isomer, unassigned) [Compound I-1554] | 1000 to 10000 nM
O=C(Nc1cc(-c2cnn(-c3ncccn3)c2)cc2c1C(c1cc(F)ccc1Cl)NC2=O)c1cc(F)cc(C(F)(F)F)c1 (single isomer, unassigned) [Compound I-1555] | ≤ 100 nM
O=C1NC[C@H](c2cc(NC(=O)c3cc(F)cc(C(F)(F)F)c3)c3c(c2)C(=O)N[C@@H]3c2cc(F)ccc2Cl)O1 (single isomer, unassigned) [Compound I-1558] | 100 to 500 nM
O=C1NC[C@H](c2cc(NC(=O)c3cc(F)cc(C(F)(F)F)c3)c3c(c2)C(=O)N[C@H]3c2cc(F)ccc2Cl)O1 (single isomer, unassigned) [Compound I-1559] | ≤ 100 nM
O=C1NC[C@@H](c2cc(NC(=O)c3cc(F)cc(C(F)(F)F)c3)c3c(c2)C(=O)N[C@@H]3c2cc(F)ccc2Cl)O1 (single isomer, unassigned) [Compound I-1560] | 500 to 1000 nM
C[S@](=O)(Cc1cc(NC(=O)c2cc(F)cc(C(F)(F)F)c2)c2c(c1)C(=O)N[C@@H]2c1cc(F)ccc1Cl)=NC#N (single isomer, unassigned) [Compound I-1561] | 100 to 500 nM
O=C1NC[C@@H](c2cc(NC(=O)c3cc(F)cc(C(F)(F)F)c3)c3c(c2)C(=O)N[C@H]3c2cc(F)ccc2Cl)O1 (single isomer, unassigned) [Compound I-1562] | ≤ 100 nM
C[S@](=O)(Cc1cc(NC(=O)c2cc(F)cc(C(F)(F)F)c2)c2c(c1)C(=O)N[C@@H]2c1cc(F)ccc1Cl)=NC#N (single isomer, unassigned) [Compound I-1563] | ≤ 100 nM
C[S@](=O)(Cc1cc(NC(=O)c2cc(F)cc(C(F)(F)F)c2)c2c(c1)C(=O)N[C@H]2c1cc(F)ccc1Cl)=NC#N (single isomer, unassigned) [Compound I-1564] | ≤ 100 nM
